According to US20050209278A1, “Piperidinyl- and piperazinyl-sulfonylmethyl hydroxamic acids and their use as protease inhibitors” (priority 2002, published 2005):
Structures can show the parent of a compound that is named as a salt. Where two headings read alike, the source gives them in different places.

Tests used:
MMP-1 = target: T1, MMP-1 (Homo sapiens, UniProt P03956); assay: In vitro MMP inhibition, Ki determination (fluorogenic substrate II); type: biochemical; settings: read-out: MMP-1 Ki
T1 construct: made in house; host or cells: MMP-1-transfected HT-1080 cells (spent media)
T1 sequence (P03956 100-469): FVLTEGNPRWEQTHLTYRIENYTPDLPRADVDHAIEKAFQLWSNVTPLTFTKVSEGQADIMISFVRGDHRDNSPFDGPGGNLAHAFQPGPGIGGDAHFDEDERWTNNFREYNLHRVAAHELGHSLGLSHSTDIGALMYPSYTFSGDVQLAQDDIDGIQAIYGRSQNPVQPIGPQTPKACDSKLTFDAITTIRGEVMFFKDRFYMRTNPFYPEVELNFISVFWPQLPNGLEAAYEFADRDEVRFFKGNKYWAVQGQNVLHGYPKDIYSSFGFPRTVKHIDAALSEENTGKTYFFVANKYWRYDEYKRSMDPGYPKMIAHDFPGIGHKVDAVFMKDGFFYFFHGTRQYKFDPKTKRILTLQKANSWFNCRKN
Description: (§1) Several hydroxamic acids and salts thereof were analyzed in in vitro assays to determine their ability to inhibit the MMP cleavage of peptide substrates. […] and IC50 constants were calculated from the assayed hydroxamic acid-MMP interactions.
(§2) Human recombinant MMP-1, MMP-2, MMP-9, MMP-13, and MMP-14 were used in this assay. All enzymes were prepared in Assignee's laboratories following usual laboratory procedures. Protocols for the preparation and use of these enzymes are available in the scientific literature. See, e.g., Enzyme Nomenclature (Academic Press, San Diego, Calif., 1992) (and the citations therein). See also, Freije et al., “Molecular cloning and expression of collagenase-3, a novel human matrix metalloproteinase produced by breast carcinomas,” J Biol. Chem., 269(24), 16766-16773 (1994).
The MMP-1 proenzyme was purified from the spent media of MMP-1-transfected HT-1080 cells provided by Dr. Harold Welgus of Washington University (St. Louis, Mo.). The protein was purified on a zinc chelating column.
(§3) All MMPs were activated using 4-aminophenylmercuric acetate (“APMA”, Sigma Chemical, St. Louis, Mo.) or trypsin. MMP-9 also was activated using human recombinant MMP-3 (purified in Assignee's laboratory following standard cloning and purification techniques).
(§4) Two fluorogenic, methoxycoumarin-containing polypeptide substrates were used in the MMP inhibition assays: [drawing 427] Here, “Dpa” is 3-(2,4-dinitrophenyl)-L-2,3-diaminopropionyl group, and “MCA” is 7-methoxycoumarin-4-yl acetyl. Substrate (I) was purchased from Baychem (Redwood City, Calif.), and substrate II was prepared Assignee's laboratory. Substrate I was used in the IC50 determination assays, while substrate II was used in the Ki determination assays. In the absence of MMP inhibitory activity, either substrate is cleaved at the Gly-Leu peptide bond. This cleavage separates the highly fluorogenic peptide from the 2,4-dinitrophenyl quencher, thus resulting in increase of fluorescent intensity.
(§5) The stock solutions of the assayed hydroxamic acids (or salts thereof) were prepared in 1% dimethyl sulfoxide (DMSO). These stock solutions were diluted in Buffer A (100 mM Tris-HCl, 100 mM NaCl, 10 mM CaCl2, 0.05% polyoxyethylene 23 lauryl ether, pH 7.5) to obtain solutions with different hydroxamic acid concentrations, i.e., assay solutions with different concentrations of the assayed MMP inhibitory compound. The experiment controls contained the same amount of Buffer A/DMSO as the assayed sample, but contained no hydroxamic acid (or salt thereof).
The assays from which the Ki determinations were made were performed as follows. The assayed hydroxamic acid samples were incubated in separate wells of untreated white polystyrene plates (Nunc Nalgene International, Rochester, N.Y.), and analyzed on a Tecan SpectraFlour Plus plate reader. The excitation wavelength was 330 nm, and the emission wavelength—420 nm. All samples (assayed hydroxamic acids and controls) were incubated in separate plate wells at room temperature for 1 hr in the presence of 4 μM of MMP substrate (II). In the absence of MMP inhibitory activity, substrate II was cleaved at the Gly-Leu bond resulting in an increase of relative fluorescence. Inhibition was observed as a reduced rate of this increase in relative fluorescence. The various hydroxamic acids were analyzed using a single low enzyme concentration with a single substrate concentration fixed at or below the Km. This protocol is a modification of method by Knight et al., FEBS Lett., 296(3), 263-266 (1992). Apparent inhibitory constants were determined by non-linear regression of reaction velocity as a function of inhibitor and enzyme concentration using Morrison's equation, as described by Kuzmic, Anal. Biochem. 286, 45-50 (2000). […] Since the substrate concentration was chosen to be at or below the Km, the apparent Ki's from this analysis were reported as Ki's without correction for the influence of substrate.

MMP-13 = target: T2, MMP-13 (Homo sapiens, UniProt P45452); assay: as above; type: biochemical; settings: human recombinant enzyme, 4 μM substrate II, room temperature, 1 hr
T2 construct: made in house; host or cells: baculovirus / insect cells
Description: as §1, §2
The MMP-13 was obtained as a proenzyme from a full-length cDNA clone using baculovirus, as described by V. A. Luckow, “Insect Cell Expression Technology,” Protein Engineering: Principles and Practice, pp. 183-218 (edited by J. L. Cleland et al., Wiley-Liss, Inc., 1996). The expressed proenzyme was first purified over a heparin agarose column, and then over a chelating zinc chloride column. The proenzyme was then activated by APMA for use in the assay. […] See also, O'Reilly et al, Baculovirus Expression Vectors: A Laboratory Manual (W.H. Freeman and Co., New York, N.Y., 1992). See also, King et al., The Baculovirus Expression System: A Laboratory Guide (Chapman & Hall, London, England, 1992).
as §3, §4, §5
The assays from which the Ki determinations were made were performed as follows. The assayed hydroxamic acid samples were incubated in separate wells of untreated white polystyrene plates (Nunc Nalgene International, Rochester, N.Y.), and analyzed on a Tecan SpectraFlour Plus plate reader. The excitation wavelength was 330 nm, and the emission wavelength—420 nm. All samples (assayed hydroxamic acids and controls) were incubated in separate plate wells at room temperature for 1 hr in the presence of 4 μM of MMP substrate (II). In the absence of MMP inhibitory activity, substrate II was cleaved at the Gly-Leu bond resulting in an increase of relative fluorescence. Inhibition was observed as a reduced rate of this increase in relative fluorescence. The various hydroxamic acids were analyzed using a single low enzyme concentration with a single substrate concentration fixed at or below the Km.

[1] = human recombinant enzyme, 4 μM substrate II, room temperature, 1 hr

Ki (MMP-1; [1]) [nM]	Ki (MMP-13; MMP-13 Ki) [nM]	Ki (MMP-13; read-out: MMP-13 Ki) [nM]	Ki (MMP-1; value not in parenthesis) [nM]	Compound
> 10000		0.522		CCCCc1ccc(N2CCN(S(=O)(=O)C3(C(=O)NO)CCN(CCOC)CC3)CC2)cc1 [Example 5, 4-{[4-(4-butylphenyl)piperazin-1-yl]sulfonyl}-N-hydroxy-1-(2-methoxyethyl)piperidine-4-carboxamide Dihydrochloride]
> 10000		0.27		CCCCCc1ccc(N2CCN(S(=O)(=O)C3(C(=O)NO)CCN(CCOC)CC3)CC2)cc1 [Example 6, N-Hydroxy-1-(2-methoxyethyl)-4-{[4-(4-pentylphenyl)piperazin-1-yl]sulfonyl}piperidine-4-carboxamide Dihydrochloride]
> 10000		0.61		CCCCCc1ccc(N2CCN(S(=O)(=O)C3(C(=O)NO)CCN(CCOC)CC3)CC2)cc1F [Example 13, 4-{[4-(3-fluoro-4-pentylphenyl)piperazin-1-yl]sulfonyl}-N-hydroxy-1-(2-methoxyethyl)piperidine-4-carboxamide Dihydrochloride]
> 10000		2.67		COCCOc1ccc(N2CCN(S(=O)(=O)C3(C(=O)NO)CCOCC3)CC2)cc1 [Example 14, N-hydroxy-4-({4-[4-(2-methoxyethoxy)phenyl]piperazin-1-yl}sulfonyl)tetrahydro-2H-pyran-4-carboxamide Hydrochloride]
> 10000		0.23		CCCCCc1ccc(C2CCN(S(=O)(=O)C3(C(=O)NO)CCN(CCOC)CC3)CC2)cc1 [Example 15, N-hydroxy-1-(2-methoxyethyl)-4-{[4-(4-pentylpheyl)piperidin-1-yl]sulfonyl}piperidine-4-carboxamide Hydrochloride]
			> 10000	CCCCOc1ccc(N2CCN(S(=O)(=O)C3(C(=O)NO)CCN(c4nccc(C(F)(F)F)n4)CC3)CC2)cc1 [Example 130]

Second part, the compound before the results:

Compound	Ki (MMP-1; [1]) [nM]	Ki (MMP-13; MMP-13 Ki) [nM]	Ki (MMP-13; read-out: MMP-13 Ki) [nM]	Ki (MMP-1; value not in parenthesis) [nM]
CCCCc1cnc(N2CCN(S(=O)(=O)C3(C(=O)NO)CCOCC3)CC2)cn1 [Example 1, 4-{[4-(5-butylpyrazin-2-yl)piperazin-1-yl]sulfonyl}-N-hydroxytetrahydro-2H-pyran-4-carboxamide Dihydrochloride]	> 10000	1.82		
O=C(NO)C1(S(=O)(=O)N2CCN(c3ccc(OCC(F)(F)F)cc3)CC2)CCOCC1 [Example 2, N-hydroxy-4-({4-[4-(2,2,2-trifluoroethoxy)phenyl]piperazin-1-yl}sulfonyl)tetrahydro-2H-pyran-4-carboxamide Hydrochloride]	> 10000		0.77	
CCOc1ccc(N2CCN(S(=O)(=O)C3(C(=O)NO)CCOCC3)CC2)cc1 [Example 3, 4-{[4-(4-ethoxyphenyl)piperazinyl]sulfonyl}perhydro-2H-pyran-4-carbohydroxamic Acid]	7530		1.46	
O=C(NO)C1(S(=O)(=O)N2CCN(c3ccc(OC(F)(F)C(F)F)cc3)CC2)CCOCC1 [Example 4, 4-({4-[4-(1,1,2,2-tetrafluoroethoxy)phenyl]piperazinyl}sulfonyl)perhydro-2H-pyran-4-carbohydroxamic Acid]	1470		0.216	
O=C(NO)C1(S(=O)(=O)N2CCN(c3ccc(OCCCC(F)(F)F)cc3)CC2)CCOCC1 [Example 7, N-hydroxy-4-({4-[4-(4,4,4-trifluorobutoxy)phenyl]piperazin-1-yl}sulfonyl)tetrahydro-2H-pyran-4-carboxamide Hydrochloride]	> 10000		0.17	
COc1ccc(-c2cnc(N3CCN(S(=O)(=O)C4(C(=O)NO)CCOCC4)CC3)nc2)cc1 [Example 8, N-hydroxy-4-({4-[5-(4-methoxyphenyl)pyrimidin-2-yl]piperazin-1-yl}sulfonyl)tetrahydro-2H-pyran-4-carboxamide Hydrochloride]	748		0.11	
COCCN1CCC(C(=O)NO)(S(=O)(=O)N2CCN(c3ccc(OCCCC(F)(F)F)cc3)CC2)CC1 [Example 9, N-hydroxy-1-(2-methoxyethyl)-4-({4-[4-(4,4,4-trifluorobutoxy)phenyl]piperazin-1-yl}sulfonyl)piperidine-4-carboxamide Dihydrochloride]	> 10000		0.05	
O=C(NO)C1(S(=O)(=O)N2CCN(c3ccc(OCC4CC4)c(F)c3)CC2)CCN(C2CC2)CC1 [Example 10, 1-cyclopropyl-4-[[4-[4-(cyclopropylmethoxy)-3-fluorophenyl]-1-piperazinyl]sulfonyl]-N-hydroxy-4-piperidinecarboxamide, dihydrochloride]	> 10000		3.88	
CCCCOc1ccc(N2CCN(S(=O)(=O)C3(C(=O)NO)CCN(CCOC)CC3)CC2)cc1F [Example 11, 4-[[4-(4-butoxy-3-fluorophenyl)-1-piperazinyl]sulfonyl]-N-hydroxy-1-(2-methoxyethyl)-4-piperidinecarboxamide, Dihydrochloride]	> 10000		0.67	
O=C(NO)C1(S(=O)(=O)N2CCN(c3ccc(-c4ccccc4)c(F)c3)CC2)CCOCC1 [Example 12, 4-{[4-(2-fluoro-1,1′-biphenyl-4-yl)piperazin-1-yl]sulfonyl}-N-hydroxytetrahydro-2H-pyran-4-carboxamide Hydrochloride]	> 10000		0.77	
CCCCOc1ccc(C2CCN(S(=O)(=O)C3(C(=O)NO)CCN(CCOC)CC3)CC2)cc1 [Example 16, 4-{[4-(4-butoxyphenyl)piperidin-1-yl]sulfonyl}-N-hydroxy-1-(2-methoxyethyl)piperidine-4-carboxamide Hydrochloride]	> 10000		0.34	
O=C(NO)C1(S(=O)(=O)N2CCN(c3ccc(OCCCC(F)(F)F)cc3F)CC2)CCOCC1 [Example 117]				> 10000
